According to US7846959B2, “Raf modulators and methods of use” (Exelixis, Inc., priority 2004, dated 2010):

Columns and labels:
B-Raf = B-Raf (Homo sapiens, UniProt P15056); test: Luciferase-coupled chemiluminescence kinase assay (ATP consumption), B-Raf; type: biochemical; conditions: read-out: bRaf (inhibition indicated as IC50)
In short: (§1)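 Pre-incub. kinase […] + cpd, 30 min RT (20 mM Tris pH 7.5, 10 mM MgCl2, 0.03% TX-100, 1 mM DTT). Start w/ ATP, 3 h ambient. Luciferase-luciferin mix added and luminescence read. Total ATP use 25-60%. IC50 derived.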

c-Raf = c-Raf (Homo sapiens, UniProt P04049); test: Luciferase-coupled chemiluminescence kinase assay (ATP consumption), c-Raf; type: biochemical; conditions: read-out: cRaf-1 (inhibition indicated as IC50)
Sequence of c-Raf (P04049 whole entry): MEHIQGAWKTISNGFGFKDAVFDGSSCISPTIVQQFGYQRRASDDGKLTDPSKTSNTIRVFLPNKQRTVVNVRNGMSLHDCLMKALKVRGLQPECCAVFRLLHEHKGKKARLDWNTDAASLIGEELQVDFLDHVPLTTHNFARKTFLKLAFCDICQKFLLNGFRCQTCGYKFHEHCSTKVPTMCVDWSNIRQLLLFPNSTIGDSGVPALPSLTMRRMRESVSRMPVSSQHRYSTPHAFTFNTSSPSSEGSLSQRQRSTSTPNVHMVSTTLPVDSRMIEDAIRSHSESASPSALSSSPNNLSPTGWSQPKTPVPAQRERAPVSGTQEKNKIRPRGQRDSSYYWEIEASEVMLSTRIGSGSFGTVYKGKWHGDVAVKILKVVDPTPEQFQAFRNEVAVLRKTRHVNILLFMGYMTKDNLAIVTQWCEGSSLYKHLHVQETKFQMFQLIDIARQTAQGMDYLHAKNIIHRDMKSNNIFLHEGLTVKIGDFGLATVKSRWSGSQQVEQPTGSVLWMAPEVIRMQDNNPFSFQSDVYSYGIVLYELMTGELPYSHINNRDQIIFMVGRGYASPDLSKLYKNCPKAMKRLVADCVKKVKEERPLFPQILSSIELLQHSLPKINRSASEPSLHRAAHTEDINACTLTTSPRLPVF
In short: as §1

Sequence of B-Raf (P15056 whole entry): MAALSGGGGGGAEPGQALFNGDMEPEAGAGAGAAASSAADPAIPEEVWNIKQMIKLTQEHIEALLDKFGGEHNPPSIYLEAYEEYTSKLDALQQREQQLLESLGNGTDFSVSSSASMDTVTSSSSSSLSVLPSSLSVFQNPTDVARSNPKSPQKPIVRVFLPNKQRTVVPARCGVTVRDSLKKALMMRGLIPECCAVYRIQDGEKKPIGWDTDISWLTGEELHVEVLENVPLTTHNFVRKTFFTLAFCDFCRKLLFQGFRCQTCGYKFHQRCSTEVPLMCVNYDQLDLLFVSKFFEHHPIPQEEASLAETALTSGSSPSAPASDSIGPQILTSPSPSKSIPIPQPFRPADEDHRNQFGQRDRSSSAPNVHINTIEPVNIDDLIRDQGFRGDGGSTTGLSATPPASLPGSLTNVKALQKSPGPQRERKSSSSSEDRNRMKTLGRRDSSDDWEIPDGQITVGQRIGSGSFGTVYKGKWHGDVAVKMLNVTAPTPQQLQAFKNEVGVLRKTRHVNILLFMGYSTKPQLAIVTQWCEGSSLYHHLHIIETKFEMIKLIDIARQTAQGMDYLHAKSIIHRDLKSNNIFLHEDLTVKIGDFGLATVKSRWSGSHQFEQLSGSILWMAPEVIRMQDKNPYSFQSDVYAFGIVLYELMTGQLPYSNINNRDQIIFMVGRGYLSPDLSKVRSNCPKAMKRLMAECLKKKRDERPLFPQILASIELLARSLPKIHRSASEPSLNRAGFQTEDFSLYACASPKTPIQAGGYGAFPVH

SMILES	IC50 (B-Raf) [nM]	IC50 (c-Raf) [nM]
Cc1cccc(N2C(=O)c3ccccc3C2(O)c2ccc3nc(Nc4cnccn4)[nH]c3c2)c1 (stereo not shown) [Entry 388, 3-hydroxy-2-(3-methylphenyl)-3-[2-(pyrazin-2-ylamino)-1H-benzimidazol-6-yl]-2,3-dihydro-1H-isoindol-1-one]	< 100	< 100
Cc1ccc(Cl)cc1N1C(=O)c2ccccc2C1(O)c1ccc2nc(Nc3cnccn3)[nH]c2c1 (stereo not shown) [Entry 389, 2-(5-chloro-2-methylphenyl)-3-hydroxy-3-[2-(pyrazin-2-ylamino)-1H-benzimidazol-6-yl]-2,3-dihydro-1H-isoindol-1-one]	< 100	< 100
COC(=O)Nc1nc2ccc(C3(O)c4ccccc4C(=O)N3c3cccc(C)c3F)cc2[nH]1 (stereo not shown) [Entry 390, methyl {6-[2-(2-fluoro-3-methylphenyl)-1-hydroxy-3-oxo-2,3-dihydro-1H-isoindol-1-yl]-1H-benzimidazol-2-yl}carbamate]	< 100	< 100
COc1cccc(N2C(=O)c3ccccc3C2(O)c2ccc3[nH]c(Nc4cnccn4)nc3c2)c1 (stereo not shown) [Entry 391, 3-hydroxy-2-[3-(methyloxy)phenyl]-3-[2-(pyrazin-2-ylamino)-1H-benzimidazol-5-yl]-2,3-dihydro-1H-isoindol-1-one]	< 100	< 100
COC(=O)Nc1nc2ccc(C(=O)c3ccccc3C(=O)NCc3cccs3)cc2[nH]1 [Entry 392, methyl {6-[(2-{[(2-thienylmethyl)amino]carbonyl}phenyl)carbonyl]-1H-benzimidazol-2-yl}carbamate]	< 100	< 100
COC(=O)Nc1nc2ccc(C(=O)c3ccccc3C(=O)Nc3cccc(Br)c3)cc2[nH]1 [Entry 394, methyl {6-[(2-{[(3-bromophenyl)amino]carbonyl}phenyl)carbonyl]-1H-benzimidazol-2-yl}carbamate]	< 100	< 100
COC(=O)Nc1nc2ccc(C(=O)c3ccccc3C(=O)Nc3cccc(Cl)c3)cc2[nH]1 [Entry 395, methyl {6-[(2-{[(3-chlorophenyl)amino]carbonyl}phenyl)carbonyl]-1H-benzimidazol-2-yl}carbamate]	< 100	< 100
COC(=O)Nc1nc2ccc(C(=O)c3ccccc3C(=O)Nc3cccc(OC)c3)cc2[nH]1 [Entry 397, methyl (6-{[2-({[3-(methyloxy)phenyl]amino}carbonyl)phenyl]carbonyl}-1H-benzimidazol-2-yl)carbamate]	< 100	< 100
COC(=O)Nc1nc2ccc(C(=O)c3ccccc3C(=O)Nc3cccc(C(F)(F)F)c3)cc2[nH]1 [Entry 398, methyl (6-{[2-({[3-(trifluoromethyl)phenyl]amino}carbonyl)phenyl]carbonyl}-1H-benzimidazol-2-yl)carbamate]	< 100	< 100
COC(=O)Nc1nc2ccc(C(=O)c3ccccc3C(=O)Nc3ccc(F)c(Cl)c3)cc2[nH]1 [Entry 401, methyl {6-[(2-{[(3-chloro-4-fluorophenyl)amino]carbonyl}phenyl)carbonyl]-1H-benzimidazol-2-yl}carbamate]	< 100	< 100
COC(=O)Nc1nc2ccc(C(=O)c3ccccc3C(=O)Nc3cc(Cl)ccc3F)cc2[nH]1 [Entry 402, methyl {6-[(2-{[(5-chloro-2-fluorophenyl)amino]carbonyl}phenyl)carbonyl]-1H-benzimidazol-2-yl}carbamate]	< 100	< 100
COC(=O)Nc1nc2ccc(C(=O)c3ccccc3C(=O)Nc3ccc(F)c(Br)c3)cc2[nH]1 [Entry 406, methyl {6-[(2-{[(3-bromo-4-fluorophenyl)amino]carbonyl}phenyl)carbonyl]-1H-benzimidazol-2-yl}carbamate]	< 100	< 100
COC(=O)Nc1nc2ccc(C(=O)c3ccccc3C(=O)Nc3cccc(Cl)c3F)cc2[nH]1 [Entry 407, methyl {6-[(2-{[(3-chloro-2-fluorophenyl)amino]carbonyl}phenyl)carbonyl]-1H-benzimidazol-2-yl}carbamate]	< 100	< 100
COC(=O)Nc1nc2ccc(C(=O)c3ccccc3C(=O)Nc3ccc(F)c(C)c3)cc2[nH]1 [Entry 408, methyl {6-[(2-{[(4-fluoro-3-methylphenyl)amino]carbonyl}phenyl)carbonyl]-1H-benzimidazol-2-yl}carbamate]	< 100	< 100
COC(=O)Nc1nc2ccc(C(=O)c3ccccc3C(=O)Nc3cc(Br)c(F)cc3F)cc2[nH]1 [Entry 410, methyl {6-[(2-{[(5-bromo-2,4-difluorophenyl)amino]carbonyl}phenyl)carbonyl]-1H-benzimidazol-2-yl}carbamate]	< 100	< 100
COC(=O)Nc1nc2ccc(C(=O)c3ccccc3C(=O)Nc3cc(Cl)c(F)cc3F)cc2[nH]1 [Entry 411, methyl {6-[(2-{[(5-chloro-2,4-difluorophenyl)amino]carbonyl}phenyl)carbonyl]-1H-benzimidazol-2-yl}carbamate]	< 100	< 100
C=Cc1cccc(NC(=O)c2ccccc2C(=O)c2ccc3nc(NC(=O)OC)[nH]c3c2)c1 [Entry 413, methyl {6-[(2-{[(3-ethenylphenyl)amino]carbonyl}phenyl)carbonyl]-1H-benzimidazol-2-yl}carbamate]	< 100	< 100
C#Cc1cccc(NC(=O)c2ccccc2C(=O)c2ccc3nc(NC(=O)OC)[nH]c3c2)c1F [Entry 414, methyl {6-[(2-{[(3-ethynyl-2-fluorophenyl)amino]carbonyl}phenyl)carbonyl]-1H-benzimidazol-2-yl}carbamate]	< 100	< 100
C=Cc1cccc(NC(=O)c2ccccc2C(=O)c2ccc3nc(NC(=O)OC)[nH]c3c2)c1F [Entry 418, methyl {6-[(2-{[(3-ethenyl-2-fluorophenyl)amino]carbonyl}phenyl)carbonyl]-1H-benzimidazol-2-yl}carbamate]	< 100	< 100
COC(=O)Nc1nc2ccc(C(=O)c3ccccc3C(=O)Nc3cc(C)ccc3F)cc2[nH]1 [Entry 419, methyl {6-[(2-{[(2-fluoro-5-methylphenyl)amino]carbonyl}phenyl)carbonyl]-1H-benzimidazol-2-yl}carbamate]	< 100	< 100
